In US20210015098A1, “MOLECULES HAVING PESTICIDAL UTILITY, AND INTERMEDIATES, COMPOSITIONS, AND PROCESSES, RELATED THERETO” (DOW AGROSCIENCES LLC, priority 2018, published 2021):

Assays:
Assay type in all cases: in vivo
[1] = test system: Green Peach Aphid (Myzus persicae, MYZUPE); assay: Bioassays on Green Peach Aphid (GPA), foliar spray on cabbage seedlings
Protocol: Certain molecules disclosed in this document were tested against GPA using procedures described in the following example. In the reporting of the results, the “GPA & YFM Rating Table” was used (See Table Section).
Cabbage seedlings grown in 3-inch pots, with 2-3 small (3-5 cm) true leaves, were used as test substrate. The seedlings were infested with 20-50 GPA (wingless adult and nymph stages) one day prior to chemical application. Four pots with individual seedlings were used for each treatment. Test molecules (2 mg) were dissolved in 2 mL of acetone/methanol (1:1) solvent, forming stock solutions of 1000 ppm test molecule. The stock solutions were diluted 5× with 0.025% Tween 20 in water to obtain the solution at 200 ppm test molecule. A hand-held aspirator-type sprayer was used for spraying a solution to both sides of […] leaves until runoff. Reference plants (solvent check) were sprayed with the diluent only containing 20% by volume of acetone/methanol (1:1) solvent. Treated plants were held in a holding room for three days at approximately 25° C. and ambient relative humidity (RH) prior to grading. Evaluation was conducted by counting the number of live aphids per plant under a microscope. Percent control was measured using Abbott's correction formula (W. S. Abbott, “A Method of Computing the Effectiveness of an Insecticide” J. Econ. Entomol. 18 (1925), pp. 265-267) as follows. Corrected % Control=100*(X−Y)/X where X=No. of live aphids on solvent check plants and Y=No. of live aphids on treated plants. The results are indicated in the table entitled “Table ABC: Biological Results” (See Table Section).

[2] = test system: Yellow Fever Mosquito (Aedes aegypti, AEDSAE)
Protocol: Certain molecules disclosed in this document were tested against YFM using procedures described in the following paragraph. In the reporting of the results, the “GPA & YFM Rating Table” was used (See Table Section).
Master plates containing 400 μg of a molecule dissolved in 100 μL of dimethyl sulfoxide (DMSO) (equivalent to a 4000 ppm solution) are used. A master plate of assembled molecules contains 15 μL per well. To this plate, 135 μL of a 90:10 water/acetone mixture is added to each well. A robot (Biomek® NXP Laboratory Automation Workstation) is programmed to dispense 15 μL aspirations from the master plate into an empty 96-well shallow plate (“daughter” plate). There are 6 reps (“daughter” plates) created per master. The created “daughter” plates are then immediately infested with YFM larvae.
The day before plates are to be treated, mosquito eggs are placed in Millipore water containing liver powder to begin hatching (4 g into 400 mL). After the “daughter” plates are created using the robot, they are infested with 220 μL of the liver powder/larval mosquito mixture (about 1 day-old larvae). After plates are infested with mosquito larvae, a non-evaporative lid is used to cover the plate to reduce drying. Plates are held at room temperature for 3 days prior to grading. After 3 days, each well is observed and scored based on mortality. The results are indicated in the table entitled “Table ABC: Biological Results” (See Table Section).

[3] = test system: Cabbage Looper (Trichoplusia ni, TRIPNI); assay: Bioassays on Cabbage Looper (CL), 128-well diet tray assay
How it was run: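 Percent mortality, averaged across eight replicate wells, after second-instar larvae (1–5 per well) fed for five to seven days on diet dosed at 50 μg/cm^2. Compound was applied in acetone-water 90:10 and dried; trays kept vented at 25° C under 14:10 photoperiod.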

[4] = test system: Beet Armyworm (Spodoptera exigua, LAPHEG); assay: Bioassays on Beet Armyworm (BAW), 128-well diet tray assay
How it was run: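 Larvae at second instar are exposed on dried, compound-treated diet (50 μg/cm^2, delivered in 90:10 acetone-water) in eight replicate wells. After five to seven days at 25° C., 14:10 light-dark, percent mortality in each well is scored and the eight wells averaged.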

SMILES | mortality at 200 ppm ([1]; Myzus persicae, 72 h, 200 ppm foliar spray on cabbage seedlings, three days, Abbott corrected % control, read-out: GPA % Control (or Mortality) rating) [%] | YFM % Control (or Mortality) rating ([2]; about 1 day-old larvae, 96-well plate, room temperature, 3 days) | mortality at 50 µg/cm2 ([3]; 168 h, 50 μg/cm^2 on artificial diet, second instar larvae, 25° C., five to seven days, read-out: CL % Control (or Mortality) rating) [%] | mortality at 50 µg/cm2 ([4]; 168 h, 50 μg/cm^2 on artificial diet, second instar larvae, 25° C., five to seven days, read-out: BAW % Control (or Mortality) rating) [%] | GPA (rating) ([1]; Green Peach Aphid, Table ABC Biological Results) | YFM (rating) ([2]; Yellow Fever Mosquito, Table ABC Biological Results) | pest or weed control at 50 µg/cm2 ([3]; Cabbage Looper, Table ABC Biological Results, read-out: CL (rating)) [%] | pest or weed control at 50 µg/cm2 ([4]; Beet Armyworm, Table ABC Biological Results, read-out: BAW (rating)) [%]
Nc1c(F)ccc(NC(=O)c2cc(NC(=O)[C@H]3[C@H](c4cccc(C(F)(F)F)c4)C3(Cl)Cl)ccc2Cl)c1F [DP6, N-(3-Amino-2,4-difluorophenyl)-2-chloro-5-((1R,3R)-2,2-dichloro-3-(3-(trifluoromethyl)phenyl)cyclopropane-1-carboxamido)benzamide] | 80 to 100 | B (More than 0-Less than 80) | 50 to 100 | 50 to 100 |  |  |  | 
CC[S+]([O-])C(C)C(=O)Nc1c(F)ccc(NC(=O)c2cc(NC(=O)[C@H]3[C@H](c4ccc(F)c(C(F)(F)F)c4)C3(Cl)Cl)ccc2Cl)c1F (stereo partly drawn) [F34, 2-chloro-5-((R,3R)-2,2-dichloro-3-(4-fluoro-3-(trifluoromethyl)phenyl)cyclopropane-1-carboxamido)-N-(3-(2-(ethylsulfinyl)propanamido)-2,4-difluorophenyl)benzamide] |  |  |  |  | B (More than 0-Less than 80) | A (80-100) | 50 to 100 | 50 to 100
